Source: patent publication US4452813A, “Sulfonate derivatives, process for preparing same and antilipemic compositions containing the derivative” (Taiho Pharmaceutical Company Limited, priority 1981, dated 1984)

Assays:
[1] = target: esterase (purified microsome fraction of the liver of a rat); assay: Esterase inhibiting activity (hydrolysis of methyl butyrate); assay type: biochemical; settings: methyl butyrate substrate, pH 8.0, 37° C., 60 minutes
Protocol: 1. Esterase Inhibiting Activity
A 10 micromole quantity of methyl butyrate in a 50% ethanol solution is added as a substrate to a specified amount of buffer solution (pH 8.0) containing 0.1 mole of trishydrochloric acid. To the mixture is further added a 50% ethanol solution of the compound of the invention, immediately followed by addition of an esterase solution prepared from a purified microsome fraction of the liver of a rat (adjusted to hydrolyze 9 micromoles of methyl butyrate at 37° C. in one hour). The mixture is reacted at 37° C. for 60 minutes.
After the reaction, alkaline hydroxylamine is added to the mixture to form a hydroxamic acid derivative of methyl butyrate, and a ferric salt is added to the derivative. The resulting red color is colorimetrically determined (at a wavelength of 540 nm) to determine the amount of remaining methyl butyrate. The esterase inhibiting ratios of the present compound at least at three concentrations are plotted as ordinate, and the logarithms of the concentrations as abscissa to obtain a line, which gives the 50% inhibition concentration (IC50).

[2] = Acute toxicity, oral, one week; settings: rat, in vivo, 5% gum arabic suspension
Text: Six-week-old male Wister rats weighing 180 to 200 g are used, 5 rats in each group. The present compound is suspended in a 5% aqueous solution of gum arabic, and the suspension is orally given to the rats. For one week after the start of the test, the rats are checked evey day for general toxicity symptoms, body weight and death to determine the LD50 value.

[3] = target: Chymotripsin (Bos taurus, UniProt P00766); assay: Chymotripsin inhibiting activity (hydrolysis of ATEE); assay type: biochemical; settings: 0.5 h; 1 × 10^-4 mol; 20 min preincubation, ATEE 30 min, 37° C., pH 8.0
Protocol: 2. Chymotripsin Inhibiting Activity
Chymotripsin (0.1 unit) serving as an enzyme solution is added to a specified quantity of buffer solution (pH 8.0) containing 0.1 mole of trishydrochloric acid. To the mixture is further added a 50% ethanol solution of the compound of the invention. The mixture is reacted at 37° C. for 20 minutes.
On completion of the reaction, 10 micromoles of […] (ATEE) serving as a substrate is added to the mixture, and the resulting mixture is reacted at 37° C. for 30 minutes.
After the completion of the reaction, the amount of remaining ATEE is determined by the same hydroxamic acid method as above. The percent chymotripsin inhibition is given by [formula] wherein A is the amount of hydrolzed esters in the reaction system not containing the compound of the invention, and B is the amount of hydrolyzed esters in the reaction system containing the present compound.

[4] = system: triglycerides content in the plasma; assay: Antilipemic effect: inhibition of olive oil-induced hyperlipidemia, plasma triglycerides; assay type: in vivo, male Wister rats; settings: Rattus norvegicus, 100 mg compound in 5 ml olive oil, 5 ml/kg oral, 2 hours, read-out: Antilipemic effect IGI (%) (percent hyperlipidemia inhibition, triglycerides)
Protocol: Seven-week-old male Wister rats weighing 200 to 220 g are used, 5 rats in each group.
The compound of the invention (100 mg) is dissolved in 5 ml of olive oil. The olive oil containing the compound is orally given to the rat with a probe at a dose of 5 ml/kg. Two hours thereafter, 6 ml of whole blood is withdrawn from the descending aorta of the rat under ether anesthesia with a syringe containing heparin. The blood is centrifuged at 5° C. and 3000 r.p.m. to obtain the plasma. The plasma collected is used for determining the triglycerides content, using a triglycerides measuring kit (trade mark "Triglycerides-B Test Wako," product of Wako Junyaku Co., Ltd., Japan). Olive oil containing no compound is similarly given to a control group, while no treatment is conducted for a normal group. The triglycerides content in the plasma is also determined for these groups in the same manner as is the case with the test groups.
The percent hyperlipidemia inhibition achieved by the present compound is given by [formula] in which A is the triglycerides content of the control group, B is the triglycerides content of the normal group, and C is the triglycerides content of the group to which the present compound is given.

| SMILES | IC50 [1] | LD50 at 168 h [2] | inhibition at 100 µM [3] | inhibition in vivo at 100 mg/kg [4] |
| --- | --- | --- | --- | --- |
| Cc1ccc(S(=O)(=O)OCC(=O)CC2CCCCC2C)cc1 (stereo not shown) [Compound 18] | 8400 nM | > 2000 mg/kg | 72% |  |
| CCOc1ccc(S(=O)(=O)OCC(=O)CC2CCCCC2C)cc1 (stereo not shown) [Compound 19] | 5400 nM | > 3000 mg/kg | 57% | 74% |
| CC(C)C1CCC(CC(=O)COS(=O)(=O)c2ccccc2)CC1 (stereo not shown) [Compound 21] | 6000 nM | > 3000 mg/kg | 94% | 70% |
| CCC1CCC(C(=O)COS(=O)(=O)c2ccccc2)CC1 (stereo not shown) [Compound 22] | 200 nM | > 2000 mg/kg | 58% | 59% |
| CCOc1ccc(S(=O)(=O)OCC(=O)C2CCC(CC)CC2)cc1 (stereo not shown) [Compound 23] | 1400 nM | > 3000 mg/kg | 24% | 67% |
| CC(C)[C@H]1CC[C@@H](C(=O)COS(=O)(=O)c2ccccc2)CC1 [Compound 24] | 700 nM | > 3000 mg/kg | 16% | 60% |
| CC(C)[C@H]1CC[C@H](C(=O)COS(=O)(=O)c2ccccc2)CC1 [Compound 25, trans-2-(benzene-sulfonyloxy)-1-(4-isopropylcyclohexyl)-1-ethanone] | 65 nM | > 3000 mg/kg | 62% | 90% |
| CCOc1ccc(S(=O)(=O)OCC(=O)[C@H]2CC[C@@H](C(C)C)CC2)cc1 [Compound 26] | 11000 nM | > 3000 mg/kg | 14% | 50% |
| CCOc1ccc(S(=O)(=O)OCC(=O)[C@H]2CC[C@H](C(C)C)CC2)cc1 [Compound 27] | 2000 nM | > 3000 mg/kg | 35% | 76% |
| Cc1cc(C)c(S(=O)(=O)OCC(=O)[C@H]2CC[C@@H](C(C)C)CC2)c(C)c1 [Compound 28] | 1200 nM | > 3000 mg/kg |  |  |
| Cc1cc(C)c(S(=O)(=O)OCC(=O)[C@H]2CC[C@H](C(C)C)CC2)c(C)c1 [Compound 29] | 130 nM | > 3000 mg/kg |  |  |
| CC(C)C[C@H]1CC[C@@H](C(=O)COS(=O)(=O)c2ccccc2)CC1 [Compound 30] | 4000 nM | > 3000 mg/kg | 30% | 57% |
| CC(C)C[C@H]1CC[C@H](C(=O)COS(=O)(=O)c2ccccc2)CC1 [Compound 31] | 1600 nM | > 3000 mg/kg | 43% | 79% |
| CCC(C)[C@H]1CC[C@@H](C(=O)COS(=O)(=O)c2ccccc2)CC1 (stereo partly shown) [Compound 32] | 560 nM | > 3000 mg/kg | 13% | 61% |
| CCC(C)[C@H]1CC[C@H](C(=O)COS(=O)(=O)c2ccccc2)CC1 (stereo partly shown) [Compound 33] | 170 nM | > 3000 mg/kg | 19% | 76% |
| CC(C)(C)[C@H]1CC[C@@H](C(=O)COS(=O)(=O)c2ccccc2)CC1 [Compound 34] | 4600 nM | > 3000 mg/kg |  | 52% |
| CC(C)(C)[C@H]1CC[C@H](C(=O)COS(=O)(=O)c2ccccc2)CC1 [Compound 35] | 4600 nM | > 3000 mg/kg |  | 72% |
